Like-named read-outs stand apart in the source and are kept apart here.
Tests used:
Format in all cases: cell-based
human P2X4 receptor = molecular target: T1, human P2X4 receptor (Homo sapiens, UniProt Q99571); assay: Ca2+‐flux assay for the hP2X4 receptor; settings: read-out: % Inhibition of P2X4R at 10 µM compounds’ concentration
T1 construct: expressed in transfected cells; host or cells: human 1321N1 astrocytoma cells
T1 sequence (Q99571 1-388): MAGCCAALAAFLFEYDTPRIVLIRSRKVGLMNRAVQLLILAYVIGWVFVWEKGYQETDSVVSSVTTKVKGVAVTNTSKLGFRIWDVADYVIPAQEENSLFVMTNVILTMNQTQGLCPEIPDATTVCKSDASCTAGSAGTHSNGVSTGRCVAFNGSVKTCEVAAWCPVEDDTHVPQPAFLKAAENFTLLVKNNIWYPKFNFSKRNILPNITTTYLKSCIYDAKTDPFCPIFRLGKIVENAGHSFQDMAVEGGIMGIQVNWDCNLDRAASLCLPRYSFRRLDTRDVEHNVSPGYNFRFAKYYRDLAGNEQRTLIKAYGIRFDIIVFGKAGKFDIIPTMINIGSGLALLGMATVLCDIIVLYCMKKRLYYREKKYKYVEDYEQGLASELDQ
Protocol: Human 1321N1 astrocytoma cells stably expressing the human P2X4 receptor (generated in‐house) were cultured in Dulbecco's Modified Eagle Medium supplemented with 9% (v/v) FCS, 1% (v/v) Penicillin/Streptomycin (10000 I.U./mL, 10 mg/mL in 0.9% NaCl) and puromycin (1 µg/mL) as a selection antibiotic at 37°C and 5% CO2. Cells were subcultured in cell culture 75 cm^2 flasks and split every 2–4 days (1:5; 1:6) once confluent.
1321N1 cells stably expressing human P2X4 receptor were seeded into black‐walled 96‐well plates (Thermo Fisher Scientific) at 2.5 × 10^4 cells/well and incubated at 37°C for 24–48 h. All test compounds were diluted in assay buffer solution (SBS: 135 mM NaCl; 5 mM KCl; 1 mM MgCl2.6 H2O; 1.8 mM CaCl2; 5.6 mM D‐Glucose; 10 mM HEPES, 0.1% (m/v) BSA, 0.05% (m/v) gelatine, 2.3 mM probenecid). The culture medium was removed, and 100 µL of 4 μM fluorescent Ca^2+ indicator Calbryte520AM in SBS was added and incubated at 37°C for 1 h. The dye solution was then removed, 100 µL of SBS solution and 50 µL of antagonist dilutions (10^–5–10^–9 M) in SBS were added, and the cells were incubated at room temperature for an extra 30 min. Finally, 50 µL of ATP (at a concentration of the previously determined EC50‐ value) was added by using FlexStation 3 Multi‐Mode Microplate Reader (Molecular Devices, San Jose, CA, USA, Software SoftMax7 Pro). The changes in intracellular Ca^2+ ion concentrations were monitored over 200 s (20 s baseline) by measuring the fluorescence signal at λ ex = 494 nm and λ em = 516 nm ([…] cut‐off). The concentration‐dependent decrease in Ca^2+‐flux, expressed as RFU, was plotted against the concentrations of the compounds.

[1] = system: HGC‐27 (gastric carcinoma); assay: Resazurin cell viability assay, HGC‐27; settings: for inhibition at 50 µM / IC50: Homo sapiens, HGC-27; for inhibition at 50 µM: read-out: % Cellular growth inhibition (at 50 µM) HGC‐27; for decrease in IC50 relative to 7f (HIT): HGC‐27
In short: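 Cells in DMEM/10% FBS, 1 × 10^3 per well, adhered overnight, then treated with compounds (0–50 µM) for 72 h. Viability read as fluorescence (ex 530, em 590 nm) after 4 h with 44 µM resazurin. % growth inhibition at 50 µM and IC50 by nonlinear regression, triplicates.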

GNP15 = assay: Resazurin cellular growth inhibition, GNP15; settings: 72 hours, triplicate; read-out: IC50 (nM, Cellular growth inhibition) GNP15 (supplement)
Protocol: ^b IC50 values were determined using the same resazurin-based assay, with fluorescence measurements performed after 72 hours of treatment. These experiments were carried out in triplicate.

[2] = system: OHMF (non‐tumoral oral fibroblast); assay: Resazurin cell viability assay, OHMF fibroblasts; settings: Homo sapiens, 72 h, n = 3
Protocol: (§1) The tongue squamous cell carcinoma cell line CAL‐27 (ATCC CRL‐2095), breast carcinoma BT‐20 (ATCC HTB‐19), gastric carcinoma HGC‐27 (BCRJ Code 0310), and normal oral fibroblast OHMF (culture of fibroblasts derived from human oral healthy mucosa, approved by the Research Ethics Committee of the University of São Paulo, Campus of Ribeirão Preto, Brazil (with protocol number 049) were cultured in DMEM medium (DMEM, Sigma‐Aldrich, St. Louis, MO, USA) supplemented with 10% fetal bovine serum and a solution of penicillin (100 U/mL) and streptomycin (100 μg/mL). The cultures were maintained in a humidified incubator with 5% CO₂ at 37°C.
(§2) Cell viability was analyzed using the resazurin assay. For this, cells were seeded in 96‐well plates (1 × 10^3 cells per well) and incubated at 37°C with 5% CO₂ overnight for cell adhesion. Subsequently, the cells were treated with different compounds (0–50 µM) for 72 h. After treatment, the medium was replaced with phenol‐free DMEM medium (Sigma‐Aldrich) containing resazurin at a concentration of 44 µM (Sigma‐Aldrich). After incubation for 4 h at 37°C, fluorescence detection was performed (excitation 530/25 nm, emission 590/35 nm) using a microplate fluorimeter (Synergy 2, Biotek). Initial cell growth inhibition assays were performed in triplicate or quadruplicate, while IC50 determinations were conducted in triplicate. Data were plotted, and IC₅₀ values were determined by nonlinear regression using GraphPad Prism software 9.0.

[3] = system: CAL‐27, BT‐20 and HGC‐27 cancer cell lines; assay: Resazurin antiproliferative screening, cancer cell line panel; settings: for level of inhibition in the 50 µM screening: 70% inhibition threshold; for IC50: range over CAL‐27, BT‐20, HGC‐27, read-out: IC50 values across cancer cell lines
Protocol: as §1, §2

[4] = 72 h, mean ± SD, n = 3, read-out: IC50 (nM) HGC‐27
[5] = 72 hours, triplicate, read-out: IC50 (nM, Cellular growth inhibition) HGC-27 (supplement)

| Structure (SMILES) | inhibition at 10 µM (human P2X4 receptor) [%] | IC50 [1, 4] [nM] | IC50 [1, 5] [nM] | inhibition at 50 µM ([1]; 72 h, mean ± SD, n = 3) [%] | IC50 (GNP15) [nM] | IC50 [2] [nM] | level of inhibition in the 50 µM screening [3] | IC50 [3] [nM] | decrease in IC50 relative to 7f (HIT) [1] |
| --- | --- | --- | --- | --- | --- | --- | --- | --- | --- |
| COc1ccc2c(C(=O)c3cc(OC)c(OC)c(OC)c3)c(C(F)(F)F)cn2c1 [Compound 8e, [6‐methoxy‐2‐(trifluoromethyl)indolizin‐1‐yl](3,4,5‐trimethoxyphenyl)methanone] | -9 | 117 ± 32 | 105 ± 49 | 53 ± 2.2 | > 50000 | > 50000 | 89.5% to 73.1 | 47 to 117 | four‐ to sixfold decrease |
| COc1ccc2c(C(=O)c3cc(OC)c(OC)c(OC)c3)c(C(C)(C)C)cn2c1 [Compound 8b, [2‐(Tert‐Butyl)‐6‐Methoxyindolizin‐1‐yl](3,4,5‐Trimethoxyphenyl)Methanone] | -6 |  |  | 46 ± 6 |  |  | 89.5% to 73.1 |  |  |
| CCCc1cn2cc(OC)ccc2c1C(=O)c1cc(OC)c(OC)c(OC)c1 [Compound 8h, (6‐methoxy‐2‐propylindolizin‐1‐yl)(3,4,5‐trimethoxyphenyl)methanone] | 6 | 75 ± 35 | 90 ± 56 | 70 ± 3.3 | > 50000 | > 50000 | 89.5% to 73.1 | 47 to 117 | four‐ to sixfold decrease |

The next lines start with results.

| inhibition at 10 µM (human P2X4 receptor) [%] | IC50 [1, 4] [nM] | IC50 [1, 5] [nM] | Structure (SMILES) | inhibition at 50 µM ([1]; 72 h, mean ± SD, n = 3) [%] | IC50 (GNP15) [nM] | IC50 [2] [nM] | level of inhibition in the 50 µM screening [3] | IC50 [3] [nM] | decrease in IC50 relative to 7f (HIT) [1] |
| --- | --- | --- | --- | --- | --- | --- | --- | --- | --- |
| 5 | 410 ± 212 | 370 ± 28 | COc1ccc2c(C(=O)c3cc(OC)c(OC)c(OC)c3)c(C)cn2c1 [Compound 8a, (6‐methoxy‐2‐methylindolizin‐1‐yl)(3,4,5‐trimethoxyphenyl)methanone] | 41 ± 4.3 | > 50000 | > 50000 |  |  |  |
| 0 | 465 ± 35 |  | COc1ccc2c(C(=O)c3cc(OC)c(OC)c(OC)c3)c(-c3ccc(C)cc3)cn2c1 [Compound 8j, [6‐methoxy‐2‐(p ‐tolyl)indolizin‐1‐yl](3,4,5‐trimethoxyphenyl)methanone] | 71 ± 2 | > 50000 | > 50000 | 89.5% to 73.1 |  |  |
| 7 | 880 ± 14 | 800 ± 127 | COc1ccc(-c2cn3cc(OC)ccc3c2C(=O)c2cc(OC)c(OC)c(OC)c2)cc1 [Compound 8k, [6‐methoxy‐2‐(4‐methoxyphenyl)indolizin‐1‐yl](3,4,5‐trimethoxyphenyl)methanone] | 74 ± 2 | > 50000 | > 50000 | 89.5% to 73.1 |  |  |
| -3 | 11900 | 14100 | COc1ccc2c(C(=O)c3ccc(Cl)c(Cl)c3)ccn2c1 [Compound 7e, (6‐methoxyindolizin‐1‐yl)(3,4‐dichlorophenyl)methanone] | 68 ± 3.4 | > 50000 | > 50000 |  |  |  |

Reference: PMC12673918, “Design, Synthesis, and Selective Antiproliferative Activity of Indolizine Derivatives as Microtubule Destabilizers” (Archiv Der Pharmazie, 2025)
